Source: US8742110B2, “Spiroxazolidinone compounds” (Merck Sharp & Dohme Corp., priority 2010, dated 2014)
Counter-ions that a name gives are not always drawn.

Biological target: SSTR5 (Homo sapiens (Human), UniProt P35346)
Experiment: SSTR5 binding assay
Settings: CHO-K1 membranes expressing cloned human SSTR5
Procedure: The receptor-ligand binding assays of all 5 subtype of SSTRs were performed with membranes isolated from Chinese hamster ovary (CHO)-K1 cells stably expressing the cloned human somatostatin receptors in 96-well format as previous reported.
The stable cell lines for SSTR1-SSTR5 were developed by stably transfecting with DNA for all five SSTRs using Lipofectamine. […] The assay buffer consisted of 50 mM TrisHCl (pH 7.8) with 1 mM EGTA, […] MgCl2, leupeptin (10 μg/mL), pepstatin (10 μg/mL), bacitracin (200 μg/mL), and aprotinin (0.5 μg/mL). CHO-K1 cell membranes, radiolabeled somatostatin, and unlabeled test compounds were resuspended or diluted in this assay buffer. Unlabeled test compounds were examined over a range of concentrations from 0.01 nM to 10,000 nM.
Compounds exemplified were tested in the SSTR5 binding assay.

Sequence of SSTR5 (P35346 whole entry): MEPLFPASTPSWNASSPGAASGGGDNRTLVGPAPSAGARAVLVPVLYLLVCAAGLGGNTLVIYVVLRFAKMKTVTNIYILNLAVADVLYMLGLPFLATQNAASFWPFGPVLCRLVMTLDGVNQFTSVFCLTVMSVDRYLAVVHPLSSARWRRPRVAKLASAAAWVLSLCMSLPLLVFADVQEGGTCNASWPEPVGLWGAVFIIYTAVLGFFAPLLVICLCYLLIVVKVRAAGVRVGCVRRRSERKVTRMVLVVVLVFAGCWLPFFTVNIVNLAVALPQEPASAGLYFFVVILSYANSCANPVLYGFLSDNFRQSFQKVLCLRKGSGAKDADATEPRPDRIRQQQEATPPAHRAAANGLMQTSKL

| Structure (SMILES) | IC50 [nM] |
| --- | --- |
| CCOc1cc(CN2CCC3(CC2)CN(c2ccc(C(=O)O)cc2F)C(=O)O3)c(-c2ccc(F)c(F)c2F)cc1C [Example 4-21, 4-{8-[(4-Ethoxy-2′,3′,4′-trifluoro-5-methylbiphenyl-2-yl)methyl]-2-oxo-1-oxa-3,8-diazaspiro[4.5]dec-3-yl}-3-fluorobenzoic acid, TFA salt] | 0.397 |
| CC(C)n1cc(CN2CCC3(CC2)CN(c2ccc(C(=O)O)cc2)C(=O)O3)c2c(OCc3ccccc3)cccc21 [Example 6-18, 4-(8-{[4-(Benzyloxy)-1-(propan-2-yl)-1H-indol-3-yl]methyl}-2-oxo-1-oxa-3,8-diazaspiro[4.5]dec-3-yl)benzoic acid, TFA salt] | 0.225 |
| O=C(O)c1ccc(N2CC3(CCN(Cc4cn(CC(F)(F)F)nc4-c4ccc(F)c(F)c4F)CC3)OC2=O)cc1 [Example 1-41, 4-(2-Oxo-8-{[1-(2,2,2-trifluoroethyl)-3-(2,3,4-trifluorophenyl)-1H-pyrazol-4-yl]methyl}-1-oxa-3,8-diazaspiro[4.5]dec-3-yl)benzoic acid, TFA salt] | 10.4 |
| CC(C)(C)n1cc(CN2CCC3(CC2)CN(c2ccc(-c4nn[nH]n4)cc2)C(=O)O3)c(-c2cc(F)c(Cl)cc2F)n1 [Example 1-29, 8-{[1-tert-Butyl-3-(4-chloro-2,5-difluorophenyl)-1H-pyrazol-4-yl]methyl}-3-[4-(2H-tetrazol-5-yl)phenyl]-1-oxa-3,8-diazaspiro[4.5]decan-2-one, TFA salt] | 0.582 |
| CCCCn1cc(CN2CCC3(CC2)CN(c2ccc(C(=O)O)cc2)C(=O)O3)c2ccc(OC)cc21 [Example 6-21, 4-{8-[(6-Methoxy-1-butyl-1H-indol-3-yl)methyl]-2-oxo-1-oxa-3,8-diazaspiro[4.5]dec-3-yl}benzoic acid, TFA salt] | 11.7 |
| COc1ccc2c(CN3CCC4(CC3)CN(c3ccc(C(=O)O)cc3)C(=O)O4)nn(-c3ccccc3)c2c1 [Example 6-13, 4-{8-[(6-Methoxy-1-phenyl-1H-indazol-3-yl)methyl]-2-oxo-1-oxa-3,8-diazaspiro[4.5]dec-3-yl}benzoic acid, TFA salt] | 185 |
| Cc1cc(C(=O)O)ccc1N1CC2(CCN(Cc3cn(C(C)(C)C)nc3-c3ccc(F)c(F)c3F)CC2)OC1=O [Example 1-37, 4-(8-{[1-tert-Butyl-3-(2,3,4-trifluorophenyl)-1H-pyrazol-4-yl]methyl}-2-oxo-1-oxa-3,8-diazaspiro[4.5]dec-3-yl)-3-methylbenzoic acid, TFA salt] | 1.59 |
| O=C(O)c1ccc(N2CC3(CCN(Cc4sc(-c5ccccc5)nc4-c4ccccc4)CC3)OC2=O)cc1 [Example 6-32, 4-{8-[(2,4-Diphenyl-1,3-thiazol-5-yl)methyl]-2-oxo-1-oxa-3,8-diazaspiro[4.5]dec-3-yl}benzoic acid, TFA salt] | 69.1 |
| O=C(O)c1ccc(N2CC3(CCN(Cc4c(-c5ccccc5)nc5ccccn45)CC3)OC2=O)cc1 [Example 6-37, 4-{2-Oxo-8-[(2-phenylimidazo[1,2-a]pyridin-3-yl)methyl]-1-oxa-3,8-diazaspiro[4.5]dec-3-yl}benzoic acid, TFA salt] | 13.4 |
| CCCn1cc(-c2ccc(F)c(F)c2F)c(CN2CCC3(CC2)CN(c2ccc(C(=O)O)cc2)C(=O)O3)n1 [Example 2-6, 4-(2-Oxo-8-{[1-propyl-4-(2,3,4-trifluorophenyl)-1H-pyrazol-3-yl]methyl}-1-oxa-3,8-diazaspiro[4.5]dec-3-yl)benzoic acid, TFA salt] | 281 |
| O=C(O)c1ccc(N2CC3(CCN(Cc4cc(C(F)(F)F)ccc4-c4ccc(F)c(F)c4F)CC3)OC2=O)cc1 [Example 4-9, 4-(2-Oxo-8-{[2′,3′,4′-trifluoro-4-(trifluoromethyl)biphenyl-2-yl]methyl}-1-oxa-3,8-diazaspiro[4.5]dec-3-yl)benzoic acid, TFA salt] | 0.439 |
| CC(C)(C)n1cc(CN2CCC3(CC2)CN(c2ccc(C(=O)O)cc2)C(=O)O3)c(-c2cc(F)c(F)cc2F)n1 [Example 1-7, 4-(8-{[1-tert-Butyl-3-(2,4,5-trifluorophenyl)-1H-pyrazol-4-yl]methyl}-2-oxo-1-oxa-3,8-diazaspiro[4.5]dec-3-yl)benzoic acid, TFA salt] | 2.62 |
| O=C(O)c1ccc(N2CC3(CCN(Cc4c(-c5cc(F)c(F)cc5F)nn(-c5ccccc5)c4Cl)CC3)OC2=O)cc1 [Example 1-39, 4-(8-{[5-Chloro-1-phenyl-3-(2,4,5-trifluorophenyl)-1H-pyrazol-4-yl]methyl}-2-oxo-1-oxa-3,8-diazaspiro[4.5]dec-3-yl)benzoic acid, TFA salt] | 44.6 |
| O=C(O)c1ccc(N2CC3(CCN(Cc4cn(C5CCCCC5)nc4-c4ccc(F)c(Cl)c4)CC3)OC2=O)cc1 [Example 1-2, 4-(8-{[3-(3-Chloro-4-fluorophenyl)-1-cyclohexyl-1H-pyrazol-4-yl]methyl}-2-oxo-1-oxa-3,8-diazaspiro[4.5]dec-3-yl)benzoic acid, TFA salt] | 0.943 |
| O=C(O)c1ccc(N2CC3(CCN(Cc4cc(OC(F)(F)F)ccc4-c4ccc(F)c(F)c4F)CC3)OC2=O)cc1 [Example 4-17, 4-(2-Oxo-8-{[2′,3′,4′-trifluoro-4-(trifluoromethoxy)biphenyl-2-yl]methyl}-1-oxa-3,8-diazaspiro[4.5]dec-3-yl)benzoic acid, TFA salt] | 0.165 |
| O=C(O)c1ccc(N2CC3(CCN(Cc4cn(-c5cccc6c5OCCO6)nc4-c4ccc(F)c(F)c4F)CC3)OC2=O)cc1 [Example 1-21, 4-(8-{[1-(2,3-Dihydro-1,4-benzodioxin-5-yl)-3-(2,3,4-trifluorophenyl)-1H-pyrazol-4-yl]methyl}-2-oxo-1-oxa-3,8-diazaspiro[4.5]dec-3-yl)benzoic acid, TFA salt] | 3.21 |
| O=C(O)c1ccc(N2CC3(CCN(Cc4cc(C(F)(F)F)ccc4-c4ccc(F)nc4)CC3)OC2=O)cc1 [Example 4-10, 4-{8-[2-(6-Fluoropyridin-3-yl)-5-(trifluoromethyl)benzyl]-2-oxo-1-oxa-3,8-diazaspiro[4.5]dec-3-yl}benzoic acid, TFA salt] | 1.49 |
| Cc1cc(-c2cc(F)c(F)cc2F)c(CN2CCC3(CC2)CN(c2ccc(C(=O)O)cc2)C(=O)O3)cc1Cl [Example 4-24, 4-{8-[(4-Chloro-2′,4′,5′-trifluoro-5-methylbiphenyl-2-yl)methyl]-2-oxo-1-oxa-3,8-diazaspiro[4.5]dec-3-yl}benzoic acid, TFA salt] | 1.13 |
| CC(C)n1nc(CN2CCC3(CC2)CN(c2ccc(C(=O)O)cc2)C(=O)O3)c2cc(F)ccc21 [Example 6-5, 4-(8-{[5-Fluoro-1-(propan-2-yl)-1H-indazol-3-yl]methyl}-2-oxo-1-oxa-3,8-diazaspiro[4.5]dec-3-yl)benzoic acid, TFA salt] | 149 |

Now from value to compound:

| IC50 [nM] | Structure (SMILES) |
| --- | --- |
| 0.502 | CCOc1ccc(-c2ccc(F)c(F)c2)c(CN2CCC3(CC2)CN(c2ccc(C(=O)O)cc2)C(=O)O3)c1 [Example 4-4, 4-{8-[(4-Ethoxy-3′,4′-difluorobiphenyl-2-yl)methyl]-2-oxo-1-oxa-3,8-diazaspiro[4.5]dec-3-yl}benzoic acid, TFA salt] |
| 1.42 | CCOc1cc(CN2CCC3(CC2)CN(c2ccc(C(=O)O)c(C)c2)C(=O)O3)cc(OCC)c1-c1ccc(F)cc1 [Example 3-8, 4-{8-[(2,6-Diethoxy-4′-fluorobiphenyl-4-yl)methyl]-2-oxo-1-oxa-3,8-diazaspiro[4.5]dec-3-yl}-2-methylbenzoic acid, TFA salt] |
| 0.323 | CCOc1cc(CN2CCC3(CC2)CN(c2ccc(-c4nn[nH]n4)cc2)C(=O)O3)cc(OCC)c1-c1ccc(F)cc1 [Example 3-12, 8-[(2,6-Diethoxy-4′-fluorobiphenyl-4-yl)methyl]-3-[4-(2H-tetrazol-5-yl)phenyl]-1-oxa-3,8-diazaspiro[4.5]decan-2-one, TFA salt] |
| 0.556 | CCOc1ccc(-c2ccc(F)c(F)c2F)c(CN2CCC3(CC2)CN(c2ccc(C(=O)O)cc2)C(=O)O3)c1 [Example 4-5, 4-{8-[(4-Ethoxy-2′,3′,4′-trifluorobiphenyl-2-yl)methyl]-2-oxo-1-oxa-3,8-diazaspiro[4.5]dec-3-yl}benzoic acid, TFA salt] |
| 0.233 | CCOc1cc(CN2CCC3(CC2)CN(c2ccc(C(=O)O)cc2)C(=O)O3)cc2c(OC)ccc(Cl)c12 [Example 5-7, 4-{8-[(5-Chloro-4-ethoxy-8-methoxynaphthalen-2-yl)methyl]-2-oxo-1-oxa-3,8-diazaspiro[4.5]dec-3-yl}benzoic acid, TFA salt] |
| 9.15 | CCOc1cc(CN2CCC3(CC2)CN(c2cccc(C(=O)O)c2)C(=O)O3)cc(OCC)c1-c1ccc(F)cc1 [Example 3-14, 3-{8-[(2,6-Diethoxy-4′-fluorobiphenyl-4-yl)methyl]-2-oxo-1-oxa-3,8-diazaspiro[4.5]dec-3-yl}benzoic acid, TFA salt] |
| 1.18 | CCOc1cc(CN2CCC3(CC2)CN(c2ccc(C(=O)O)cc2C)C(=O)O3)cc(OCC)c1-c1ccc(F)cc1 [Example 3-16, 4-{8-[(2,6-Diethoxy-4′-fluorobiphenyl-4-yl)methyl]-2-oxo-1-oxa-3,8-diazaspiro[4.5]dec-3-yl}-3-methylbenzoic acid, TFA salt] |
| 0.474 | CCOc1cc(CN2CCC3(CC2)CN(c2ccc(C(=O)O)cc2C)C(=O)O3)c(-c2ccc(F)c(F)c2F)cc1C [Example 4-8, 4-{8-[(4-Ethoxy-2′,3′,4′-trifluoro-5-methylbiphenyl-2-yl)methyl]-2-oxo-1-oxa-3,8-diazaspiro[4.5]dec-3-yl}-3-methylbenzoic acid, TFA salt] |
| 2.79 | CCOc1cc(CN2CCC3(CC2)CN(c2ccc(C(=O)O)c(C(F)(F)F)c2)C(=O)O3)cc(OCC)c1-c1ccc(F)cc1 [Example 3-15, 4-{8-[(2,6-Diethoxy-4′-fluorobiphenyl-4-yl)methyl]-2-oxo-1-oxa-3,8-diazaspiro[4.5]dec-3-yl}-2-(trifluoromethyl)benzoic acid, TFA salt] |
